What was measured:
K562 cells = experiment: Apoptosis assay, flow cytometry with APO2.7 mAb, in K562 cells with or without 10 days of telomestatin; format: cell-based; details: for induction of apoptosis / chemosensitivity in telomestatin-treated K562 cells compared with control cells: after exposure to the agent, the negative results are data not shown; for APO2.7 (%): 48 hours, K562 control cells or cells cultured with telomestatin 2 μM for 10 days
Protocol: Apoptosis assay. The incidence of apoptosis was determined by flow cytometric analysis with the FITC-conjugated APO2.7 monoclonal antibody (clone 2.7), which was raised against the 38 kDa mitochondrial membrane protein (7A6 antigen) and is expressed by cells undergoing apoptosis (Nakajima et al., 2001).
To assess the effects of telomerase inhibition in modulating responses to these reagents, experiments focused on early passaged telomestatin-treated K562 cells (PD10). In this series of experiments, K562 cells are cultured with telomestatin for 10 days, subsequently the telomestatin-treated K562 cells are incubated with the agents for 48 hours, and the incidence of apoptosis is determined by flow cytometric analysis with APO2.7 mAb (Table A). Apo2.7 is the apoptosis index. Higher score means that apoptosis is induced more powerfully.

OM9;22 or OM9;22R cells = experiment: Cell proliferation (growth kinetics) of OM9;22 / OM9;22R cells; format: cell-based, human; details: OM9;22 or Imatinib-resistant OM9;22R cells
Protocol: Cells and cell culture: The Ph-positive acute lymphoblastic cell line OM9;22 has been described previously (Ohyashiki et al., 1993). K562 cells were obtained from the American Type Culture Collection (Rockville, Md.). These cell lines were cultured in McCoy's 5A modified medium (Life Technology, Inc.) supplemented with 10% fetal calf serum (Hyclone Laboratories, Logan, Utah).
Effects of telomestatin on cell proliferation. We characterize the growth properties of telomestatin-treated cells. […] In a further study, we can characterize the ability of telomestatin to inhibit BCR-ABL transformation.

[1] = test system: human normal hematopoietic progenitor cells; experiment: Clonogenic assay on normal hematopoietic progenitor cells; format: cell-based; details: at concentrations 10 times higher than those that completely inhibit colonies from OM9;22R cells

Compound	induction of apoptosis / chemosensitivity in telomestatin-treated K562 cells compared with control cells (K562 cells)	APO2.7 (%) (K562 cells; 10 nM agent)	APO2.7 (%) (K562 cells; 50 nM agent)	APO2.7 (%) (K562 cells; 100 nM agent)	APO2.7 (%) (K562 cells; 500 nM agent)	APO2.7 (%) (K562 cells; 1000 nM agent)	time until proliferation is slowed (OM9;22 or OM9;22R cells)	sensitivity of human normal hematopoietic progenitor cells [1]
Sc1ncnc2nc[nH]c12 [6-mercaptopurine (6-MP), 6-mercaptopurine]	significant chemosensitivity is not observed							
Nc1ccn([C@@H]2O[C@H](CO)[C@@H](O)[C@@H]2O)c(=O)n1 [cytosine arabimoside, cytosine arabinoside]	significant chemosensitivity is not observed							
CC[C@]1(O)C[C@H]2CN(CCc3c([nH]c4ccccc34)[C@@](C(=O)OC)(c3cc4c(cc3OC)N(C=O)[C@H]3[C@@](O)(C(=O)OC)[C@H](OC(C)=O)[C@]5(CC)C=CCN6CC[C@]43[C@@H]65)C2)C1 [VCR (control), vincristine]	enhanced induction of apoptosis	12%	18%	24%	29%	34%		
COc1cc([C@@H]2c3cc4c(cc3[C@@H](O[C@@H]3O[C@@H]5CO[C@@H](C)O[C@H]5[C@H](O)[C@H]3O)[C@H]3COC(=O)[C@H]23)OCO4)cc(OC)c1O [etoposide (VP-16), etoposide]	significant chemosensitivity is not observed							
COc1cccc2c1C(=O)c1c(O)c3c(c(O)c1C2=O)C[C@@](O)(C(C)=O)C[C@@H]3O[C@H]1C[C@H](N)[C@H](O)[C@H](C)O1 [DNR (control), Daunorubicin]	enhanced induction of apoptosis	11%	23%	36%	53%			
O=C1c2c(O)ccc(O)c2C(=O)c2c(NCCNCCO)ccc(NCCNCCO)c21 [MIT (control), mitoxantrone]	enhanced induction of apoptosis	10%	12%	17%	29%	38%		
Cc1oc2nc1-c1nc(co1)-c1nc(co1)-c1nc(co1)-c1nc(co1)-c1nc(co1)C1=NC(CS1)c1nc-2c(C)o1 (centres unmarked) [telomestatin]							≤ 2 weeks	significantly less sensitive
CN(Cc1cnc2nc(N)nc(N)c2n1)c1ccc(C(=O)N[C@@H](CCC(=O)O)C(=O)O)cc1 [methotrexate (MTX), methotrexate]	significant chemosensitivity is not observed							
